Assay results published in patent US7989442B2, “Progesterone receptor modulators” (N.V. Organon, priority 2006, dated 2011).

System: mature cyclic rats
Test: Ovulation inhibition in rat after oral administration (in vivo progestagenic activity)
Conditions: 96 h, minimal active dose: average number of ova reduced by 60% relative to placebo, oral administration for 1 complete cycle (4 days), read-out: MAD
Protocol: Ovulation inhibition after oral administration of the compounds of the invention was studied in mature cyclic rats. Animals were treated with test compound (oral administration) for 1 complete cycle (4 days, from oestrus to pro-oestrus) and the number of ova in the oviduct was microscopically assessed at autopsy in the morning of the next (expected) oestrus. The average number of ova per rat was calculated; the minimal active dose (MAD) is defined as the level at which the average number of ova is reduced by 60% relative to placebo-treated animals.

SMILES	minimal effective dose [mg/kg]
N#Cc1cc2c(cc1F)Oc1ccccc1[C@@H]1[C@@H](NC(=O)C(F)(F)F)CCCN21 (stereo in doubt) [Example 2, (−)-(cis)-N-(7-cyano-8-fluoro-1,3,4,14b-tetrahydro-2H-dibenzo [b,f]pyrido[1,2-d][1,4]oxazepin-1-yl)-2,2,2-trifluoroacetamide]	0.014
N#Cc1c(F)cc2c(c1Cl)N1CCC[C@H](NC(=O)C(F)(F)F)[C@H]1c1ccccc1O2 (stereo in doubt) [Example 3, (−)-(cis)-N-[6-chloro-7-cyano-8-fluoro-1,3,4,14b-tetrahydro-2H-dibenzo [b,f]pyrido[1,2-d][1,4]oxazepin-1-yl]-2,2,2-trifluoroacetamide]	0.08
N#Cc1c(F)cc2c(c1C#N)N1CCC[C@H](NC(=O)C(F)(F)F)[C@H]1c1ccccc1O2 (stereo in doubt) [Example 4, (−)-(cis)-N-(6,7-dicyano-8-fluoro-1,3,4,14b-tetrahydro-2H-dibenzo [b,f]pyrido[1,2-d][1,4]oxazepin-1-yl)-2,2,2-trifluoroacetamide]	0.02
N#Cc1c(F)cc2c(c1Cl)N1CCC[C@H](NC(=O)C(F)(F)F)[C@H]1c1ccc(F)cc1O2 (stereo in doubt) [Example 5, (−)-(cis)-N-(6-chloro-7-cyano-8,12-difluoro-1,3,4,14b-tetrahydro-2H-dibenzo [b,f]pyrido[1,2-d][1,4]oxazepin-1-yl)-2,2,2-trifluoroacetamide]	≤ 0.025
CC(=O)N[C@H]1CCCN2c3c(cc(F)c(C#N)c3Cl)Oc3cccc(F)c3[C@H]12 (stereo in doubt) [Example 6, (−)-(cis)-N-(6-chloro-7-cyano-8,14-difluoro-1,3,4,14b-tetrahydro-2H-dibenzo [b,f]pyrido[1,2-d][1,4]oxazepin-1-yl)acetamide]	< 0.02
N#Cc1c(F)cc2c(c1Cl)N1CCC[C@H](NC(=O)C(F)(F)F)[C@H]1c1cccc(F)c1O2 (stereo in doubt) [Example 7, (−)-(cis)-N-(6-chloro-7-cyano-8,11-difluoro-1,3,4,14b-tetrahydro-2H-dibenzo [b,f]pyrido[1,2-d][1,4]oxazepin-1-yl)-2,2,2-trifluoroacetamide]	0.025
N#Cc1cc2c(cc1F)Oc1cccc(F)c1[C@@H]1[C@@H](NC(=O)C(F)(F)F)CCCN21 (stereo in doubt) [Example 8, (−)-(cis)-N-(7-cyano-8,14-difluoro-1,3,4,14b-tetrahydro-2H-dibenzo [b,f]pyrido[1,2-d][1,4]oxazepin-1-yl)-2,2,2-trifluoroacetamide]	0.01
N#Cc1c(F)cc2c(c1Cl)N1CCC[C@H](NC(=O)C(F)(F)F)[C@H]1c1c(F)cccc1O2 (stereo in doubt) [Example 9, (−)-(cis)-N-(6-chloro-7-cyano-8,14-difluoro-1,3,4,14b-tetrahydro-2H-dibenzo [b,f]pyrido[1,2-d][1,4]oxazepin-1-yl)-2,2,2-trifluoroacetamide]	< 0.02
CC(=O)c1cccc2c1N1CCC[C@H](NC(=O)C(F)(F)F)[C@H]1c1ccccc1O2 [eutomer of example 52 of WO03/ 084963, reference compound]	> 4
C=Cc1cccc2c1N1CCC[C@H](NC(=O)C(F)(F)F)[C@H]1c1ccccc1O2 [eutomer of example 54 of WO03/ 084963, reference compound]	> 4
N#Cc1cc(F)cc2c1N1CCC[C@H](NC(=O)C(F)(F)F)[C@H]1c1ccccc1O2 [eutomer of example 58 of WO03/ 084963, reference compound]	0.38
N#Cc1ccc2c(c1)N1CCC[C@H](NC(=O)C(F)(F)F)[C@H]1c1ccccc1O2 [eutomer of example 63 of WO03/ 084963, reference compound]	~4
CC(=O)N[C@H]1CCCN2c3c(ccc(Cl)c3Cl)Oc3ccccc3[C@H]12 [example 47 of WO03/ 084963, reference compound]	> 4
CC(=O)c1cc(F)cc2c1N1CCC[C@H](NC(=O)C(F)(F)F)[C@H]1c1ccccc1O2 [example 57 of WO03/ 084963, reference compound]	> 4
C=Cc1cc(F)cc2c1N1CCC[C@H](NC(=O)C(F)(F)F)[C@H]1c1ccccc1O2 [example 59 of WO03/ 084963, reference compound]	> 4
Cc1cc(F)cc2c1N1CCC[C@H](NC(=O)C(F)(F)F)[C@H]1c1ccccc1O2 [example 60 of WO03/ 084963, reference compound]	~1

System: not given
Test: not given
Conditions: not given

melting point [°C]	SMILES
174 to 175	N#Cc1c(F)cc2c(c1Cl)N1CCC[C@H](NC(=O)C(F)(F)F)[C@H]1c1ccc(F)cc1O2 (stereo in doubt) [Example 5, (−)-(cis)-N-(6-chloro-7-cyano-8,12-difluoro-1,3,4,14b-tetrahydro-2H-dibenzo [b,f]pyrido[1,2-d][1,4]oxazepin-1-yl)-2,2,2-trifluoroacetamide]
